The values that follow come from patent US7932270B2 (Cytokinetics, Inc., priority 2006, dated 2011).

The structures appear in SMILES notation.

In this experiment the target is T1, chicken gizzard smooth muscle myosin subfragment-1 chemically crosslinked to cardiac or skeletal actin (Gallus gallus, UniProt P10587).
T1 construct: chicken gizzard smooth muscle myosin subfragment-1; from tissue; host or cells: chicken gizzard
T1 sequence (P02607 2-151): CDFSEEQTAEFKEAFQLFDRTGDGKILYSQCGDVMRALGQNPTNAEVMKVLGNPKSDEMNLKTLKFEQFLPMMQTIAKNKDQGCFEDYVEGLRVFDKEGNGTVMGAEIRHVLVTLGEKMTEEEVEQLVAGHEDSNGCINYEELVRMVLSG
T1 sequence (P10587 84-789): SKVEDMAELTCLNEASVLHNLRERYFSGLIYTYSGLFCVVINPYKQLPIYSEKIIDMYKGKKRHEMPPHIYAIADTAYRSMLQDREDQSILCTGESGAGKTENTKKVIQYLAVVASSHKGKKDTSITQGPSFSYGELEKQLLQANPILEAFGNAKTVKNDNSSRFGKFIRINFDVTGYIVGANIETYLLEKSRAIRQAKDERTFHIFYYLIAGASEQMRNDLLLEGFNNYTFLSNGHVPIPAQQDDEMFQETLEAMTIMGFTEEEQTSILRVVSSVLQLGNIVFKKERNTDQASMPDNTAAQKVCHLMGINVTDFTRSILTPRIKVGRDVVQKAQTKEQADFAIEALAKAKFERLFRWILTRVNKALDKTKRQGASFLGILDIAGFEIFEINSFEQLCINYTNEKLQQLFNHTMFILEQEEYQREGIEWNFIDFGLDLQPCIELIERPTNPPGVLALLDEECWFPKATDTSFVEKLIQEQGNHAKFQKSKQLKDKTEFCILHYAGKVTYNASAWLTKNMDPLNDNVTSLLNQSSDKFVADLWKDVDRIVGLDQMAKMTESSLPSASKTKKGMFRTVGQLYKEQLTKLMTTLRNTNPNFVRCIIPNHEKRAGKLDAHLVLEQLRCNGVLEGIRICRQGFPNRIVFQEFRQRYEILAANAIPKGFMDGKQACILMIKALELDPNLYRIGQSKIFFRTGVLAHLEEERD
In words: Smooth muscle myosin ATPase dose response assay (pyruvate kinase/horseradish peroxidase/pyruvate oxidase-coupled, amplex red fluorescence). To be noted: read-out: IC50 Arithmetic Mean. Type of experiment: biochemical. In a few lines: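 Chicken gizzard myosin S1 crosslinked to cardiac or skeletal actin, titrated to a set hydrolysis rate; 0.15 mM ATP, 12 mM PIPES pH 7.00, 100 mM KCl, 2 mM MgCl2. Pyruvate kinase/pyruvate oxidase/HRP coupling with amplex red fluorescence; IC50 from 4-parameter fit.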
`CCOC(=O)CNCC(O)c1ccc(-c2ccccc2)nc1NCCc1cccc(F)c1` (centres unmarked) [ethyl 2-{[2-(2-{[2-(3-fluorophenyl)ethyl]amino}-6-phenyl(3-pyridyl))-2-hydroxyethyl]amino}acetate]: the IC50 was 15100 nM. For `CC(C)(C)OC(=O)N1CCOC(CNC(=O)c2ccc(-c3ccccc3)nc2NCCc2ccccn2)C1` (centres unmarked) [tert-butyl 2-[({6-phenyl-2-[(2-(2-pyridyl)ethyl)amino]-3-pyridyl}carbonylamino)methyl]morpholine-4-carboxylate], the IC50 was found to be 65100 nM. Consider `N#Cc1ccc(-c2ccc(C(=O)NCc3cccnc3)c(NCCc3ccccn3)n2)cc1` [{6-(4-cyanophenyl)-2-[(2-(2-pyridyl)ethyl)amino](3-pyridyl)}-N-(3-pyridylmethyl)carboxamide], for which the IC50 came out at 1930 nM. For `C[C@@H](CNC(=O)c1ccc(-c2ccccc2C#N)nc1NCCc1cccc(F)c1)N(C)S(C)(=O)=O` [N-{(2S)-2-[methyl(methylsulfonyl)amino]propyl}(6-(2-cyanophenyl)-2-{[2-(3-fluorophenyl)ethyl]amino}(3-pyridyl))carboxamide], the IC50 was found to be 5840 nM. Take `CC(C)(CNC(=O)c1ccc(-c2ccccc2C#N)nc1NCCc1cccc(F)c1)NC=O` [N-(2-carbonylamino-2-methylpropyl)(6-(2-cyanophenyl)-2-{[2-(3-fluorophenyl)ethyl]amino}(3-pyridyl))carboxamide]: the half-maximal inhibitory concentration (IC50) came out at 151 nM. For the molecule `CN1CCN(C(=O)CCCN)[C@@H](CNC(=O)c2ccc(-c3ccccc3C#N)nc2NCCc2cccc(F)c2)C1` [N-{[(2S)-1-(4-aminobutanoyl)-4-methylpiperazin-2-yl]methyl}(6-(2-cyanophenyl)-2-{[2-(3-fluorophenyl)ethyl]amino}(3-pyridyl))carboxamide], the IC50 worked out at 2320 nM. Regarding `N#Cc1ccccc1-c1ccc(C(=O)NC[C@H]2CCCN(C(=O)CCCN)C2)c(NCCc2cccc(F)c2)n1` [N-{[(3R)-1-(4-aminobutanoyl)(3-piperidyl)]methyl}(6-(2-cyanophenyl)-2-{[2-(3-fluorophenyl)ethyl]amino}(3-pyridyl))carboxamide], the IC50 is 512 nM. With `CNC(=O)c1ccc(-c2ccccc2)nc1NCCc1cccc(C)c1` [N-methyl(2-{[2-(3-methylphenyl)ethyl]amino}-6-phenyl(3-pyridyl))carboxamide], the IC50 amounted to 6750 nM. Consider `N#Cc1ccccc1-c1ccc(C(=O)N[C@H](CCCCN)C(N)=O)c(NCCc2cccc(F)c2)n1` [N-((1R)-5-amino-1-carbamoylpentyl)(6-(2-cyanophenyl)-2-{[2-(3-fluorophenyl)ethyl]amino}(3-pyridyl))carboxamide], for which the IC50 came to 1280 nM.

Take `O=C(NCc1cc[nH]n1)c1ccc(-c2cc[nH]n2)nc1NCCc1cccc(F)c1` [(2-{[2-(3-fluorophenyl)ethyl]amino}-6-pyrazol-3-yl(3-pyridyl))-N-(pyrazol-3-ylmethyl)carboxamide]: the IC50 was determined as 92 nM.

`CC(C)(C)OC(=O)NCc1ncccc1CNC(=O)c1ccc(-c2cnn(CCO)c2)nc1NCCc1cccc(F)c1` [N-[(2-{[(tert-butoxy)carbonylamino]methyl}(3-pyridyl))methyl](2-{[2-(3-fluorophenyl)ethyl]amino}-6-[1-(2-hydroxyethyl)pyrazol-4-yl](3-pyridyl))carboxamide]: the IC50 amounted to 15000 nM. As to `N#Cc1ccccc1-c1ccc(C(=O)NCc2ccc(N3CCCC3)nc2)c(NCCc2cccc(F)c2)n1` [(6-(2-cyanophenyl)-2-{[2-(3-fluorophenyl)ethyl]amino}(3-pyridyl))-N-[(6-pyrrolidinyl(3-pyridyl))methyl]carboxamide], the IC50 worked out at 66600 nM. With `N#Cc1ccccc1-c1ccc(C(=O)NC[C@@H]2CN(CCN)CC(=O)N2)c(NCCc2cccc(F)c2)n1` [N-{[(2R)-4-(2-aminoethyl)-6-oxopiperazin-2-yl]methyl}(6-(2-cyanophenyl)-2-{[2-(3-fluorophenyl)ethyl]amino}(3-pyridyl))carboxamide], the IC50 came out at 8470 nM.

Consider `Cn1cc(-c2ccc(C(=O)NCC3CCNC3=O)c(NCCc3cccc(F)c3)n2)cn1` (centres unmarked) [(2-{[2-(3-fluorophenyl)ethyl]amino}-6-(1-methylpyrazol-4-yl)(3-pyridyl))-N-[(2-oxopyrrolidin-3-yl)methyl]carboxamide], for which the IC50 came to 248 nM.

Take `Cn1cc(-c2nc(NCCc3cccc(F)c3)c(C(=O)NC[C@H]3CCN3C(=O)CCCNC(=O)OC(C)(C)C)cc2F)cn1` [N-[((2R)-1-{4-[(tert-butoxy)carbonylamino]butanoyl}azetidin-2-yl)methyl](5-fluoro-2-{[2-(3-fluorophenyl)ethyl]amino}-6-(1-methylpyrazol-4-yl)(3-pyridyl))carboxamide]: the concentration for half-maximal inhibition (IC50) amounted to 122 nM. Take `CN1CCCC[C@@H]1CNC(=O)c1ccc(-c2ccccc2C#N)nc1NCCc1cccc(F)c1` [N-[((2R)-1-methyl(2-piperidyl))methyl](6-(2-cyanophenyl)-2-{[2-(3-fluorophenyl)ethyl]amino}(3-pyridyl))carboxamide]: the IC50 came to 488 nM. The result for `CN(C)C(=O)[C@H](CN)NC(=O)c1ccc(-c2ccccc2C#N)nc1NCCc1cccc(F)c1` [(2S)-3-amino-2-[(6-(2-cyanophenyl)-2-{[2-(3-fluorophenyl)ethyl]amino}(3-pyridyl))carbonylamino]-N,N-dimethylpropanamide] reads 23700 nM.

Turning to `N#Cc1ccccc1-c1ccc(C(=O)NC[C@H]2CCCCN2C(=O)CCCN)c(NCCc2cccc(F)c2)n1` [N-{[(2R)-1-(4-aminobutanoyl)(2-piperidyl)]methyl}(6-(2-cyanophenyl)-2-{[2-(3-fluorophenyl)ethyl]amino}(3-pyridyl))carboxamide], the IC50 came out at 83 nM. With `O=C(NCc1cccnc1)c1ccc(-c2ccc(F)cc2)nc1NCCc1cc(F)cc(F)c1` [(2-{[2-(3,5-difluorophenyl)ethyl]amino}-6-(4-fluorophenyl)(3-pyridyl))-N-(3-pyridylmethyl)carboxamide], the IC50 amounted to 138 nM. As for `Cc1cc(-c2ccccc2C#N)nc(NCCc2cccc(F)c2)c1C(=O)NCc1cccnc1` [(6-(2-cyanophenyl)-2-{[2-(3-fluorophenyl)ethyl]amino}-4-methyl(3-pyridyl))-N-(3-pyridylmethyl)carboxamide], the IC50 turned out to be 1080 nM.

Consider `N#Cc1ccccc1-c1ccc(C(=O)NC[C@H]2CCCC(=O)N2CCCCN)c(NCCc2cccc(F)c2)n1` [N-{[(2R)-1-(4-aminobutyl)-6-oxo(2-piperidyl)]methyl}(6-(2-cyanophenyl)-2-{[2-(3-fluorophenyl)ethyl]amino}(3-pyridyl))carboxamide], for which the IC50 was 32 nM.

As to `CC[C@@H](CO)CNC(=O)c1cc(F)c(-c2cnn(C)c2)nc1NCCc1cccc(F)c1` [N-((2R)-2-ethyl-3-hydroxypropyl)(5-fluoro-2-{[2-(3-fluorophenyl)ethyl]amino}-6-(1-methylpyrazol-4-yl)(3-pyridyl))carboxamide], the IC50 was determined as 39 nM. The result for `COc1ccc(Cl)c(-c2ccc(C(=O)NCc3cccnc3)c(NCCc3cccc(F)c3)n2)c1` [(6-(2-chloro-5-methoxyphenyl)-2-{[2-(3-fluorophenyl)ethyl]amino}(3-pyridyl))-N-(3-pyridylmethyl)carboxamide] reads 2000 nM. On to `O=C(NCc1cccnc1)c1ccc(-c2cc[nH]n2)nc1NCCc1cccc(F)c1` [(2-{[2-(3-fluorophenyl)ethyl]amino}-6-pyrazol-3-yl(3-pyridyl))-N-(3-pyridylmethyl)carboxamide], for which the IC50 worked out at 124 nM.

Turning to `CN(C)c1cccc(-c2ccc(C(=O)NCc3cccnc3)c(NCCc3ccccn3)n2)c1` [{6-[3-(dimethylamino)phenyl]-2-[(2-(2-pyridyl)ethyl)amino](3-pyridyl)}-N-(3-pyridylmethyl)carboxamide], the IC50 turned out to be 12400 nM. Consider `N#Cc1ccccc1-c1ccc(C(=O)NCC(=O)NCCCO)c(NCCc2cccc(F)c2)n1` [2-[(6-(2-cyanophenyl)-2-{[2-(3-fluorophenyl)ethyl]amino}(3-pyridyl))carbonylamino]-N-(3-hydroxypropyl)acetamide], for which the IC50 turned out to be 5840 nM. Regarding `CC(C)[C@H](CNC(=O)c1ccc(-c2ccccc2C#N)nc1NCCc1cccc(F)c1)NC(=O)CO` [N-((1R)-1-{[(6-(2-cyanophenyl)-2-{[2-(3-fluorophenyl)ethyl]amino}(3-pyridyl))carbonylamino]methyl}-2-methylpropyl)-2-hydroxyacetamide], the IC50 came to 441 nM. With `N#Cc1ccccc1-c1ccc(C(=O)NC[C@H]2CCCC(=O)N2CCCCN2C(=O)c3ccccc3C2=O)c(NCCc2cccc(F)c2)n1` [N-({(2R)-1-[4-(1,3-dioxobenzo[c]azolin-2-yl)butyl]-6-oxo(2-piperidyl)}methyl)(6-(2-cyanophenyl)-2-{[2-(3-fluorophenyl)ethyl]amino}(3-pyridyl))carboxamide] the figure was 791 nM; with `Cn1cc(-c2ccc(C(=O)NC[C@H]3CCCN3C(=O)CNC(=O)OC(C)(C)C)c(NCCc3cccc(F)c3)n2)cn1` [N-[((2R)-1-{2-[(tert-butoxy)carbonylamino]acetyl}pyrrolidin-2-yl)methyl](2-{[2-(3-fluorophenyl)ethyl]amino}-6-(1-methylpyrazol-4-yl)(3-pyridyl))carboxamide], 5530 nM; with `Cc1csc(-c2ccc(C(=O)NCc3cccnc3)c(NCCc3ccccn3)n2)c1` [{6-(4-methyl(2-thienyl))-2-[(2-(2-pyridyl)ethyl)amino](3-pyridyl)}-N-(3-pyridylmethyl)carboxamide], 344 nM. For `N[C@@H](CO)CNC(=O)c1cc(F)c(-c2cn[nH]c2)nc1NCCc1cccc(F)c1` [N-((2R)-2-amino-3-hydroxypropyl)(5-fluoro-2-{[2-(3-fluorophenyl)ethyl]amino}-6-pyrazol-4-yl(3-pyridyl))carboxamide], the IC50 stood at 1820 nM. With `O=C(NCC1CCNC1=O)c1ccc(-c2cn[nH]c2)nc1NCCc1cccc(F)c1` (centres unmarked) [(2-{[2-(3-fluorophenyl)ethyl]amino}-6-pyrazol-4-yl(3-pyridyl))-N-[(2-oxopyrrolidin-3-yl)methyl]carboxamide] the figure was 180 nM.

One may read the IC50 as the concentration that gives 50% inhibition.
